Assays:
Assay in all cases: relative viability (nuclei count vs DMSO), 5 days (fraction); higher = more cells survive
Seliciclib + Phenformin = compound: CC[C@H](CO)Nc1nc(NCc2ccccc2)c2ncn(C(C)C)c2n1 [Seliciclib] + N=C(N)NC(=N)NCCc1ccccc1 [Phenformin] (partner 250 µM)
Procedure, shortened: (§1)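 Five library-drug doses in √10 steps were combined with a fixed anchor-drug dose, or a single drug was given alone, by pin tool to lung cancer cell lines in 1536-well plates the day after seeding. Nuclei were stained and counted after 5 days. Relative viability is the nuclei count in treated wells over that in vehicle wells, taken as the median of duplicate plates.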

Seliciclib + Lapatinib = compound: CC[C@H](CO)Nc1nc(NCc2ccccc2)c2ncn(C(C)C)c2n1 [Seliciclib] + CS(=O)(=O)CCNCc1ccc(-c2ccc3ncnc(Nc4ccc(OCc5cccc(F)c5)c(Cl)c4)c3c2)o1 [Lapatinib] (partner 2 µM)
Procedure, shortened: as §1

Seliciclib + Olaparib = compound: CC[C@H](CO)Nc1nc(NCc2ccccc2)c2ncn(C(C)C)c2n1 [Seliciclib] + O=C(c1cc(Cc2n[nH]c(=O)c3ccccc23)ccc1F)N1CCN(C(=O)C2CC2)CC1 [Olaparib] (partner 8 µM)
Procedure, shortened: as §1

Seliciclib + Trametinib = compound: CC[C@H](CO)Nc1nc(NCc2ccccc2)c2ncn(C(C)C)c2n1 [Seliciclib] + CC(=O)Nc1cccc(-n2c(=O)n(C3CC3)c(=O)c3c(Nc4ccc(I)cc4F)n(C)c(=O)c(C)c32)c1 [Trametinib] (partner 0.02 µM)
Procedure, shortened: as §1

| Cell Line | relative viability (Seliciclib + Phenformin; first compound 0.08 µM) | relative viability (Seliciclib + Phenformin; first compound 0.8 µM) | relative viability (Seliciclib + Phenformin; first compound 2.53 µM) | relative viability (Seliciclib + Phenformin; first compound 8 µM) | relative viability (Seliciclib + Lapatinib; first compound 0.08 µM) | relative viability (Seliciclib + Lapatinib; first compound 0.253 µM) | relative viability (Seliciclib + Lapatinib; first compound 0.8 µM) | relative viability (Seliciclib + Lapatinib; first compound 2.53 µM) | relative viability (Seliciclib + Lapatinib; first compound 8 µM) | relative viability (Seliciclib + Olaparib; first compound 0.08 µM) | relative viability (Seliciclib + Olaparib; first compound 0.253 µM) | relative viability (Seliciclib + Olaparib; first compound 0.8 µM) | relative viability (Seliciclib + Olaparib; first compound 2.53 µM) | relative viability (Seliciclib + Olaparib; first compound 8 µM) | relative viability (Seliciclib + Trametinib; first compound 0.08 µM) | relative viability (Seliciclib + Trametinib; first compound 0.253 µM) | relative viability (Seliciclib + Trametinib; first compound 0.8 µM) | relative viability (Seliciclib + Trametinib; first compound 2.53 µM) | relative viability (Seliciclib + Trametinib; first compound 8 µM) | relative viability (Seliciclib + Phenformin; first compound 0.253 µM) |
| --- | --- | --- | --- | --- | --- | --- | --- | --- | --- | --- | --- | --- | --- | --- | --- | --- | --- | --- | --- | --- |
| NCI-H520 | 0.61 | 0.571 | 0.634 | 0.38 | 0.858 | 0.727 | 0.831 | 0.933 | 0.674 | 0.327 | 0.396 | 0.318 | 0.346 | 0.388 | 0.617 | 0.411 | 0.669 | 0.599 | 0.625 | – |
| CAL-12T | 0.604 | 0.612 | 0.53 | 0.376 | 0.619 | 0.793 | 0.551 | 0.67 | 0.276 | 0.759 | 0.712 | 0.742 | 0.585 | 0.472 | 0.367 | 0.337 | 0.324 | 0.257 | 0.2 | 0.789 |
| EPLC-272H | 0.329 | 0.295 | 0.219 | 0.333 | 0.814 | 0.861 | 0.805 | 0.913 | 0.847 | 0.919 | 0.729 | 0.667 | 0.791 | 0.441 | 0.298 | 0.269 | 0.309 | 0.258 | 0.244 | 0.335 |
| NCI-H2405 | 0.362 | 0.319 | 0.324 | 0.355 | 1.11 | 0.851 | 1.05 | 0.919 | 0.902 | 0.88 | 0.939 | 0.934 | 0.739 | 0.724 | 0.631 | 0.44 | 0.664 | 0.509 | 0.591 | 0.399 |
| HCC-15 | 0.491 | 0.419 | 0.383 | 0.352 | 0.865 | 0.963 | 0.758 | 0.792 | 0.652 | 0.707 | 0.792 | 0.72 | 0.796 | 0.669 | 0.393 | 0.343 | 0.369 | 0.37 | 0.357 | 0.519 |
| PC-3 [JPC-3] | 0.477 | 0.453 | 0.49 | 0.433 | 0.455 | 0.52 | 0.418 | 0.421 | 0.445 | 1.05 | 1.25 | 1.06 | 1.1 | 0.978 | 0.754 | 0.861 | 0.721 | 0.577 | 0.528 | 0.459 |
